Results as given in article PMC4811770 (eLife, 2016).
Structures can show the parent of a compound that is named as a salt. Where two headings read alike, the source gives them in different places.

Assays:
wild-type sperm = assay: Intracellular pH measurement with BCECF in wild-type sperm; assay type: cell-based, mouse
tmAC = system: T1, tmAC; assay: Maximal cAMP-dependent FRET ratio of mlCNBD-FRET in HEK293 cells after stimulation of endogenous adenylate cyclases with increasing NKH477 concentrations.; assay type: cell-based; conditions: SD, n = 4
T1 construct: endogenous in HEK293 cells, isoform not specified

[1] = system: sperm flagellum (mlCNBD-FRET sperm); assay: Dual-view FRET imaging of cAMP dynamics in the flagellum of mlCNBD-FRET sperm; assay type: cell-based, mouse
sperm = conditions: 25 mM bicarbonate, after rapid rise at 1 min
mlCNBD-FRET = target: T2, mlCNBD-FRET (Mesorhizobium japonicum, UniProt Q98GN8); assay: Spectrofluorometric titration of 1 uM purified sensor with cGMP, cerulean/citrine FRET ratio at 430 nm excitation, single-site fit.; assay type: binding; conditions: SD, n = 6
T2 construct: gene mll3241; CNBD (Phe223 to Arg349) with citrine fused to N-terminus and cerulean to C-terminus, C-terminal His10 tag
T2 sequence (Q98GN8 223-349): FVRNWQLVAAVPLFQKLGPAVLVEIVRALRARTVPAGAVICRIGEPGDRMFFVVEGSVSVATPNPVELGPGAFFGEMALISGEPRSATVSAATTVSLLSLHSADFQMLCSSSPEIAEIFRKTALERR

[2] = system: HEK293 cells expressing mlCNBD-FRET; assay: cAMP/cGMP dynamics (FRET ratio) in HEK293 cells expressing mlCNBD-FRET after drug stimulation; assay type: cell-based; conditions: 20 µM isoproterenol, n = 9
Method: Cells were cultured in Ibidi μ-slides (Ibidi, Planegg, Germany) attached to a home-built gravity-flow perfusion system. Measurements were performed using a CellR live-cell imaging system (Olympus) with 20x objective. Cells were perfused with extracellular solution (ES: 120 mM NaCl, 5 mM KCl, 2 mM MgCl2, 2 mM CaCl2, 10 mM HEPES, 10 mM glucose, pH 7.4) to determine the basal FRET ratio and then the stimulus was added (NKH477 and IBMX, Tocris, Wiesbaden, Germany; Isoproterenol and SNP, Sigma-Aldrich). FRET was recorded by exciting cerulean at 436 nm and measuring the emission of cerulean and citrine at 470 nm and 535 nm, respectively. The change in FRET (emissioncerulean/emissioncitrine) was calculated, corrected for bleed-through, normalized to the baseline, and plotted versus time.
For population measurement using a spectrofluorometer (Quantamaster 40, PTI), HEK293 cells were trypsinized at 37°C for 5 min and washed twice with ES. […] Fluorescence spectra at steady-state were recorded with excitation at 430 nm and 0.5 s integration time. For time-resolved measurements, cells were excited at 430 nm and emission was recorded at 470 nm (cerulean) and 530 nm (citrine) at an acquisition frequency of 1 Hz. The change in FRET (emissioncerulean/emissioncitrine) was calculated, corrected for bleed-through, normalized to the baseline, and plotted versus time.

[3] = system: HEK293 cells expressing SSTR3-mlCNBD-FRET; assay: FRET change in HEK293 cells expressing SSTR3-mlCNBD-FRET; assay type: cell-based; conditions: 20 μM isoproterenol, n = 9
Method: Cells were cultured in Ibidi μ-slides (Ibidi, Planegg, Germany) attached to a home-built gravity-flow perfusion system. Measurements were performed using a CellR live-cell imaging system (Olympus) with 20x objective. […] Isoproterenol and SNP, Sigma-Aldrich). FRET was recorded by exciting cerulean at 436 nm and measuring the emission of cerulean and citrine at 470 nm and 535 nm, respectively. The change in FRET (emissioncerulean/emissioncitrine) was calculated, corrected for bleed-through, normalized to the baseline, and plotted versus time. The full-length mouse SSTR3 cloned into pEGFP-N1 was kindly provided by Greg Pazour (UMass Medical School). For expression of SSTR3-tagged mlCNBD-FRET, the SSTR3 coding sequence was amplified by a recombinant PCR reaction to delete the internal NheI site. The fragment was subcloned into […].

[4] = stopped-flow, 10 mM NH4Cl or 25 mM bicarbonate
[5] = perfusion with 25 mM bicarbonate, n = 7

Compound: O=C([O-])CN(CC(=O)[O-])c1ccccc1OCCOc1ccccc1N(CC(=O)[O-])CC(=O)[O-].[K+].[K+].[K+].[K+] [BAPTA, 1,2-Bis(2-aminophenoxy)ethane-N,N,N′,N′-tetraacetic acid tetrapotassium salt]
- change in pHi (wild-type sperm; spectrofluorometer, 3 mM BAPTA reducing [Ca2+]o to 443 nM): did not change pHi

Compound: Cl.N [NH4Cl]
- change in pHi (wild-type sperm; [4]): pronounced alkalization

Compound: C=CC1(C)CC(=O)C2(O)C(C)(O1)C(OC(C)=O)C(OC(=O)CCN(C)C)C1C(C)(C)CCC(O)C12C (centres unmarked) [NKH477, colforsin daropate hydrochloride (water-soluble forskolin derivative)]
- EC50 (tmAC): 3.6 µM

Compound: C=CC1(C)CC(=O)C2(O)C(C)(O1)C(OC(C)=O)C(OC(=O)CCN(C)C)C1C(C)(C)CCC(O)C12C (centres unmarked) [NKH477]
- cAMP change (FRET) in midpiece or principal piece ([1]; perfusion with 40 μM NKH477, n = 3): 0 ± 3%

Compound: O=C([O-])O.[Na+] [bicarbonate, NaHCO3]
- time for total cAMP levels to decline to basal levels (sperm): ≤ 10 min
- change in pHi (wild-type sperm; [4]): did not dramatically change pHi
- cAMP increase (FRET) in midpiece [1, 5]: 26 ± 3%
- cAMP increase (FRET) in principal piece [1, 5]: 22 ± 10%
- change in cAMP (FRET) (mlCNBD-FRET sperm; 25 mM bicarbonate, 10 μM [Ca2+]o): did not change the cAMP concentration
- time to steady-state of free cAMP increase (mlCNBD-FRET sperm; 25 mM bicarbonate, 2 mM Ca2+ buffer): about 5 min
- change in cAMP (FRET) (mlCNBD-FRET sperm; bicarbonate at 2.2 nM [Ca2+]o (10 μM Ca2+/1 mM BAPTA)): did not further enhance cAMP levels

Compound: Nc1nc2c(ncn2[C@@H]2O[C@@H]3COP(=O)(O)O[C@H]3[C@H]2O)c(=O)[nH]1 [cGMP, cyclic guanosine 3',5'-monophosphate]
- Kd (mlCNBD-FRET): 0.504 µM

Compound: CC(C)NCC(O)c1ccc(O)c(O)c1 (centres unmarked) [isoproterenol]
- change of ΔF [2]: 47 ± 3%
- increase of FRET ratio [3]: approximately 25%
